Consider 18 compounds from patent publication US20220348590A1, “CYCLOOXYGENASE-2 INHIBITORS AND USES THEREOF” (The Board Institute, Inc., priority 2019, published 2022).

Where two headings read alike, the source gives them in different places.

For the experiment, the target named is T1, human recombinant COX2 (hCOX2) (UniProt P35354).
T1 sequence (P35354 1-604): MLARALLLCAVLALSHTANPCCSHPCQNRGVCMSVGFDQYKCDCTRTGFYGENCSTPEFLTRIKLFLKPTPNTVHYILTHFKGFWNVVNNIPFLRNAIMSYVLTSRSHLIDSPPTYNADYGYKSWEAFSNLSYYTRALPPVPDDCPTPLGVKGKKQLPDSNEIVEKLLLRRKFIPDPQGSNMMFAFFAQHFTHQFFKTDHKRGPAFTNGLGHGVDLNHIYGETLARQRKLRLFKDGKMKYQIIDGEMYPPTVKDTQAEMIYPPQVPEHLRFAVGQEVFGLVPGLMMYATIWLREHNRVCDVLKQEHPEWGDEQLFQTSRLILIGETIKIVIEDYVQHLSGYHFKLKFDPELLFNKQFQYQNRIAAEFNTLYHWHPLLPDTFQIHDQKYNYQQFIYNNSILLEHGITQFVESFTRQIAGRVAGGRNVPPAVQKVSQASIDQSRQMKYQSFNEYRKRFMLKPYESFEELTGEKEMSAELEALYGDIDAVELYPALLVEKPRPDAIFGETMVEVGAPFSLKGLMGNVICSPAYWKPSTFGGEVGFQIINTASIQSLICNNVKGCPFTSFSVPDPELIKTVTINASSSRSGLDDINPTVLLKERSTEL
Description: LCMS-based COX2 enzymatic inhibition assay (PGE2 quantification). The class given is biochemical. Further details: COX2 2 minutes pge2/pge2d4 area ratio Avg; other: 2 minutes; readout pge2/pge2d4 area ratio; average; COX2 2 minutes pge2/pge2d4 area ratio Avg; LLE; average LLE; COX2 2 minutes pge2 area (counts) Avg; readout pge2 area (counts); other: 2 min; "ovine COX2 (oCOX2), human recombinant COX2 (hCOX2)". As to conditions: 2 minutes; for COX2 2 minutes pge2/pge2d4 area ratio Avg. LLE / COX2 2 minutes pge2 area (counts) Avg. LLE: average LLE; for IC50: average. As to the method: We have adapted a previously reported cyclooxygenase enzymatic assay utilizing LCMS quantification of PGE2 as the product of COX-1 and COX2 catalyzed conversion of arachidonic acid to evaluate the binding properties of newly synthesized ligands [Cao, 2011]. These optimized and miniaturized (384-well plates) LCMS-based COX-1 and COX2 enzymatic assays enabled us to quickly evaluate newly synthesized ligands for COX2 binding affinity and selectivity vs COX-1. Using a shorter ligand-enzyme incubation time in the LCMS assay (2 minutes vs 10 minutes) also permitted us to prioritize ligands with faster binding kinetics. Considering the relatively slow on-rate kinetics of known coxibs, due to their 3-step binding mechanism [Marnett, 2009], we believe that optimizing this critical parameter will be key to the successful development of a COX2 PET tracer. Using these enzymatic assays, we have evaluated>200 newly synthesized ligands against COX2 and >20 ligands against COX-1. Another critical property necessary for a good PET radiotracer is to have low non-specific binding (NSB) to increase the free fraction and maximize the signal to noise ratio. This property can be evaluated using in-vitro protein binding assays, and we have now evaluated>50 newly synthesized ligands in mouse, rat and human plasma protein binding (PPB) assays as well as >15 ligands in a mouse brain protein binding (BPB) assay.
Ovine COX-1 (oCOX-1), ovine COX2 (oCOX2), human recombinant COX2 (hCOX2), arachidonic acid, PGE2, d4-PGD2, and […] (labeled with deuterium atoms at positions 3 and 4) were purchased from Cayman Chemicals (Ann Arbor, Mich.). The cofactors (−)epinephrine and hematin, and the COX inhibitors indomethacin, resveratrol and diclofenac were purchased from Sigma-Aldrich (St. Louis, Mo.). Celecoxib was purchased from 3B PharmaChem International (Wuhan, China). All organic solvents were HPLC grade or better and were purchased from Thermo Fisher (Hanover Park, Ill.). Formic acid was purchased from EMD Chemicals (San Diego, Calif.). Purified water was prepared by using a Millipore Milli-Q purification system (Millipore, Billerica, Mass.). All other chemicals and solvents were ACS reagent grade, unless stated otherwise.
In an Eppendorf tube, 146 μL of 100 mM Tris.HCl (pH 8.0) buffer, 2 μL of 100 μM hematin (co-factor) and 10 μL of 40 mM L-epinephrine (co-factor) were mixed at room temperature. Next, 20 μL of Tris.HCl (pH 8.0) buffer containing 0.2 μg COX2 or 0.1 μg COX-1 (approximately 1 unit of enzyme; 1 unit COX utilizes 1 nmol 02/mg/min at 37° C.) was added, and the solution was incubated at room temperature for 2 min. A 2 μL aliquot of the COX inhibitor in DMSO was added to the enzyme solution and preincubated at 37° C. for 10 min. Negative controls were identical except that 2 μL aliquots of DMSO without inhibitor were used instead.
Each COX reaction was initiated by adding 20 μL of arachidonic acid in Tris.HCl (pH 8.0) buffer to give a final concentration of 5 μM; and the reaction was terminated after 2 min by adding 20 μL of 2.0 M HCl. The surrogate standards d4-PGE2 and d4-PGD2 (10 μL aliquot of 50 ng/mL solution in methanol) were added to correct for errors or degradation during sample handling and for variation in injection volume or instrument response during LC-MS-MS. After 30 min, PGE2, PGD2 and their surrogate standards were extracted from each incubation mixture using 800 μL hexane/ethyl acetate (50:50, v/v). The organic phase was removed, evaporated to dryness, and reconstituted in 100 μL methanol/water (50:50, v/v) for analysis using LC-MS-MS.
The concentration of PGE2 in each sample was measured using LC-MS-MS, and the percent of COX inhibition by each test solution was determined by comparing the amount of PGE2 produced in the experiment with that produced in the negative control incubation. The formation of PGD2 was measured for quality control purposes, since the levels of PGD2 should be proportional to those of PGE2. […]

The mark [1] stands for this setting: readout pge2/pge2d4 area ratio, read-out: COX2 2 minutes pge2/pge2d4 area ratio Avg. IC50.
Where [2] appears, read: readout pge2 area (counts), read-out: COX2 2 minutes pge2 area (counts) Avg. IC50.
Where [3] appears, read: read-out: COX2 2 minutes pge2/pge2d4 area ratio Avg. IC50 (microM), readout pge2/pge2d4 area ratio, 2 min.

As to `C[C@H](Nc1cccc(-c2ccc(S(C)(=O)=O)cc2)n1)c1ccco1` (single isomer, unassigned) [Compound 89], for the setting “readout pge2/pge2d4 area ratio”, the “COX2 2 minutes pge2/pge2d4 area ratio Avg. LLE” value was found to be 3.84. For the same compound, the IC50 by setting is: under setting [1], 0.0656 µM; under setting [2], 0.06 µM. Moreover, the “COX2 2 minutes pge2 area (counts) Avg. LLE” value (“COX2 2 minutes pge2 area” below) (readout pge2 area (counts)) came to 3.875.

In the case of `C[C@@H](Nc1cccc(-c2ccc(S(C)(=O)=O)cc2)n1)c1ccoc1` (single isomer, unassigned) [Compound 112], under “readout pge2/pge2d4 area ratio”, the “COX2 2 minutes pge2/pge2d4 area ratio Avg. LLE” value came to 3.614. Further, the IC50 under setting [1] stood at 0.102 µM and the IC50 under setting [2] was found to be 0.108 µM. In addition, the “COX2 2 minutes pge2 area” value (readout pge2 area (counts)) is recorded as 3.525.

In the case of `CS(=O)(=O)c1ccc(-c2cccc(C3CC3c3ccoc3)n2)cc1` (single isomer, unassigned) [Compound 115, 2-[2-(furan-3-yl)cyclopropyl]-6-(4-methanesulfonylphenyl)pyridine], the “COX2 2 minutes pge2/pge2d4 area ratio Avg. LLE” value (readout pge2/pge2d4 area ratio) is recorded as 2.867. In addition, the IC50 is, setting by setting: under setting [1], 0.107 µM; under setting [2], 0.0632 µM. The “COX2 2 minutes pge2 area” value (readout pge2 area (counts)) is 2.982.

Regarding `CS(=O)(=O)c1ccc(-c2cncc(SC[C@H]3CCCO3)n2)cc1` (single isomer, unassigned) [Compound 154], for the setting “readout pge2/pge2d4 area ratio”, the “COX2 2 minutes pge2/pge2d4 area ratio Avg. LLE” value stood at 4.687. The IC50 amounted to 0.315 µM under setting [1] and 0.295 µM under setting [2]. In addition, the “COX2 2 minutes pge2 area” value (readout pge2 area (counts)) worked out at 4.726.

`CS(=O)(=O)c1ccc(-c2cncc(NC[C@H]3CCCS3)n2)cc1` (single isomer, unassigned) [Compound 162]: the “COX2 2 minutes pge2/pge2d4 area ratio Avg. LLE” value (readout pge2/pge2d4 area ratio) is on record as 4.811. Moreover, the IC50 came to 0.401 µM under setting [1] and 0.345 µM under setting [2]. For the same compound, the “COX2 2 minutes pge2 area” value (readout pge2 area (counts)) came out at 4.888.

Take `CS(=O)(=O)c1ccc(-c2cncc(NC[C@@H]3CCCS3)n2)cc1` (single isomer, unassigned) [Compound 167]: the “COX2 2 minutes pge2/pge2d4 area ratio Avg. LLE” value (readout pge2/pge2d4 area ratio) is given as 4.792. In addition, the IC50 runs as follows: under setting [1], 0.432 µM; under setting [2], 0.433 µM. Where the note is “readout pge2 area (counts)”, the “COX2 2 minutes pge2 area” value stood at 4.782.

For `CS(=O)(=O)c1ccc(-n2ccc3ccc([C@H](O)c4cccs4)nc32)cc1` (single isomer, unassigned) [Compound 168], the IC50 under setting [1] came to 0.437 µM and the IC50 under setting [2] amounted to 0.425 µM.

On to `CS(=O)(=O)c1ccc(-c2cncc(OC[C@@H]3CCCS3)n2)cc1` (single isomer, unassigned) [Compound 170], for which, under “readout pge2/pge2d4 area ratio”, the “COX2 2 minutes pge2/pge2d4 area ratio Avg. LLE” value is 4.61. Besides, the IC50 came out at 0.442 µM under setting [1] and 0.931 µM under setting [2]. Moreover, the “COX2 2 minutes pge2 area” value (readout pge2 area (counts)) came to 4.149.

Take `CS(=O)(=O)c1ccc(-c2cccc(C3CC3c3ccoc3)n2)cc1` (single isomer, unassigned) [Compound 177, 2-[2-(furan-3-yl)cyclopropyl]-6-(4-methanesulfonylphenyl)pyridine]: the “COX2 2 minutes pge2/pge2d4 area ratio Avg. LLE” value (readout pge2/pge2d4 area ratio) was found to be 3.065. Besides, the IC50 runs as follows: under setting [1], 0.534 µM; under setting [2], 0.635 µM. Also, the “COX2 2 minutes pge2 area” value (readout pge2 area (counts)) was determined as 2.982.

For the compound `CS(=O)(=O)c1ccc(-c2cncc(SC[C@@H]3CCCO3)n2)cc1` (single isomer, unassigned) [Compound 186], where the note is “readout pge2/pge2d4 area ratio”, the “COX2 2 minutes pge2/pge2d4 area ratio Avg. LLE” value is 4.315. Moreover, the IC50 reads like this: under setting [1], 0.627 µM; under setting [2], 0.616 µM. In addition, the “COX2 2 minutes pge2 area” value (readout pge2 area (counts)) is on record as 4.316.

As for `CS(=O)(=O)c1ccc(-c2cncc(OC[C@H]3CCCS3)n2)cc1` (single isomer, unassigned) [Compound 198], for the setting “readout pge2/pge2d4 area ratio”, the “COX2 2 minutes pge2/pge2d4 area ratio Avg. LLE” value is reported as 4.116. For the same compound, the IC50 is, setting by setting: under setting [1], 0.964 µM; under setting [2], 1.23 µM. In addition, the “COX2 2 minutes pge2 area” value (readout pge2 area (counts)) amounted to 4.04.

For the compound `CS(=O)(=O)c1ccc(-n2ccc3ccc([C@@H](O)c4cccs4)nc32)cc1` (single isomer, unassigned) [Compound 209], the IC50 by setting is: under setting [1], 1.34 µM; under setting [2], 1.44 µM.

On to `C[C@@H](Oc1cccc(-c2ccc(S(C)(=O)=O)cc2)n1)c1cccs1` (single isomer, unassigned) [Compound 229], for which, where the note is “readout pge2/pge2d4 area ratio”, the “COX2 2 minutes pge2/pge2d4 area ratio Avg. LLE” value was determined as 1.429. Besides, the IC50 under setting [1] was 2.25 µM and the IC50 under setting [2] was 1.99 µM. Besides, for the setting “readout pge2 area (counts)”, the “COX2 2 minutes pge2 area” value was 1.483.

Turning to `C[C@H](Nc1cccc(-c2ccc(S(C)(=O)=O)cc2)n1)c1ccoc1` (single isomer, unassigned) [Compound 241], for the setting “readout pge2/pge2d4 area ratio”, the “COX2 2 minutes pge2/pge2d4 area ratio Avg. LLE” value turned out to be 2.087. Besides, the IC50 by setting is: under setting [1], 2.96 µM; under setting [2], 4.36 µM. In addition, under “readout pge2 area (counts)”, the “COX2 2 minutes pge2 area” value is reported as 1.8776.

For the compound `C[C@@H](Oc1cncc(-c2ccc(S(C)(=O)=O)cc2)n1)c1cccs1` (single isomer, unassigned) [Compound 249], for the setting “readout pge2/pge2d4 area ratio”, the “COX2 2 minutes pge2/pge2d4 area ratio Avg. LLE” value worked out at 2.526. Moreover, the IC50 is, setting by setting: under setting [1], 3.44 µM; under setting [2], 4.08 µM. Also, the “COX2 2 minutes pge2 area” value (readout pge2 area (counts)) is recorded as 2.379.

With `C[C@@H](Nc1cccc(-c2ccc(S(C)(=O)=O)cc2)n1)c1ccco1` (single isomer, unassigned) [Compound 274], the “COX2 2 minutes pge2/pge2d4 area ratio Avg. LLE” value (readout pge2/pge2d4 area ratio) came to 1.914. For the same compound, where the note is “readout pge2 area (counts)”, the “COX2 2 minutes pge2 area” value amounted to 1.914. The IC50 (read-out: COX2 2 minutes pge2/pge2d4 area ratio Avg. IC50 (microM), readout pge2/pge2d4 area ratio) was found to be 5.2 µM.

As to `CS(=O)(=O)c1ccc(-c2cccc(C3CC3c3ccoc3)n2)cc1` (single isomer, unassigned) [Compound 314, 2-[2-(furan-3-yl)cyclopropyl]-6-(4-methanesulfonylphenyl)pyridine], the “COX2 2 minutes pge2 area” value (readout pge2 area (counts)) is 2.024. Also, the IC50 under setting [3] stood at 5.2 µM.

Turning to `CS(=O)(=O)c1ccc(-c2cccc(C3CC3c3ccoc3)n2)cc1` (single isomer, unassigned) [Compound 322, 2-[2-(furan-3-yl)cyclopropyl]-6-(4-methanesulfonylphenyl)pyridine], the IC50 under setting [3] was determined as 5.2 µM.
